{"source": "patent US20050107473A1", "about": "“Process for producing tert-leucine” (AJINOMOTO CO. INC, priority 2002, published 2005)", "assay": "solubility of L-tert-leucine in aqueous solutions", "assay_type": "physicochemical", "settings": "10° C.", "data": [{"smiles": "CC(C)(C)[C@H](N)C(=O)O", "note": "[L-tert-leucine]", "values": [{"measurement": "solubility in 1N aqueous hydrochloric acid solution", "setting": "1N aqueous hydrochloric acid solution", "result": 20.4, "unit": "wt %"}, {"measurement": "solubility in water", "setting": "water", "result": 12.7, "unit": "wt %"}]}]}
